Test results taken from patent US9371322B2, “Bicyclic aza-amides for treatment of psychiatric disorders” (MAX-PLANCK-GESELLSCHAFT ZUR FÖRDERUNG DER WISSENSCHAFTEN …, priority 2012, dated 2016).

Experiments:
[1] = biological target: T1, FKBP52 (Homo sapiens, UniProt Q02790); test: Competitive fluorescence polarization assay, binding to FKBP52; conditions: for FKBP52 ligand efficiency (LE): LE=(ΔG)/N, ΔG=−RTlnKi, RT=0.6, N non-hydrogen atoms; for Ki: fluorescence polarization, FKBP52FK1, fluorescent tracer 20 nM final, 30 min room temperature
T1 construct: 400 nM FKBP51FK1, 1600 nM FKBP52FK1
T1 sequence (Q02790 50-138 limits assumed): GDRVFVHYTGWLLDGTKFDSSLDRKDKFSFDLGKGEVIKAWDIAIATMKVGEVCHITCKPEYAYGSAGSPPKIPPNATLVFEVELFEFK
Protocol: (§1) Binding of the bicyclic compounds to FKBPs was measured using a competitive fluorescence polarization
(§2) The compound library ligand was dissolved in DMSO to reach a 100-times concentrated stock solution. This was used for a 1:1 serial dilution in DMSO. […] For FKBP12, -51FK1 and -52FK1 the binding assays were performed in duplicates in the plate format. The competition curves were analyzed by using SigmaPlot11. Data were fitted to a four parameter logistic curve to deduce the IC50 values.

[2] = biological target: T2, FKBP51 (Homo sapiens, UniProt Q13451); test: Competitive fluorescence polarization assay, binding to FKBP51; conditions: for FKBP51 ligand efficiency (LE): LE=(ΔG)/N, ΔG=−RTlnKi, RT=0.6, N non-hydrogen atoms; for Ki: fluorescence polarization, FKBP51FK1, fluorescent tracer 20 nM final, 30 min room temperature
T2 construct: 400 nM FKBP51FK1, 1600 nM FKBP52FK1
T2 sequence (Q13451 42-130 limits assumed): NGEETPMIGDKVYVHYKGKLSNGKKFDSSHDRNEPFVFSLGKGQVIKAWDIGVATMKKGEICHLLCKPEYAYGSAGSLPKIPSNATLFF
Protocol: as §1, §2

[3] = biological target: FKBP12 (Homo sapiens, UniProt P62942); test: Competitive fluorescence polarization assay, binding to FKBP12; conditions: for FKBP12 ligand efficiency (LE): LE=(ΔG)/N, ΔG=−RTlnKi, RT=0.6, N non-hydrogen atoms; for Ki: fluorescence polarization, fluorescent tracer 20 nM final, 30 min room temperature
FKBP12, sequence (P62942 whole entry): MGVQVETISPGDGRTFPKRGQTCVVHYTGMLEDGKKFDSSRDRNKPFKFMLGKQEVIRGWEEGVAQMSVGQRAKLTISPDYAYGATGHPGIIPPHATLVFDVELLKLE
Protocol: as §1, §2

With `COc1ccc(OCCN2CCC3CCCC(C2=O)N3S(=O)(=O)c2ccc3ncsc3c2)cc1OC` (centres unmarked) [Compound 5c, 10-(benzo[d]thiazol-6-ylsulfonyl)-3-(2-(3,4-dimethoxyphenoxyl)ethyl)-3,10-diazabicyclo[4.3.1]decan-2-one] the “FKBP52 ligand efficiency (LE)” value [1] was 0.21, the Ki [1] was 3.6 ± 0.5 µM and the “FKBP51 ligand efficiency (LE)” value [2] was 0.22. For the same molecule, the Ki [2] was 2.1 ± 0.2 µM, the “FKBP12 ligand efficiency (LE)” value [3] was 0.29 and the Ki [3] was 0.03 ± 0.007 µM.
With `O=C1C2CCCC(CN1c1ccccc1)N2S(=O)(=O)c1ccc(Cl)cc1` (centres unmarked) [Compound 4h] the Ki [1] was > 100 µM and the Ki [2] was > 100 µM.
`C=C[C@H]1CN(CCOc2ccc(OC)c(OC)c2)C(=O)[C@@H]2CCC[C@H]1N2S(=O)(=O)c1cc(Cl)cc(Cl)c1` [Compound 5k, (1S,5S,6R)-10-(3,5-dichlorophenylsulfonyl)-3-(2-(3,4-dimethoxyphenoxyl)ethyl)-5-vinyl-3,10-diazabicyclo[4.3.1]decan-2-one] showed a Ki [2] of 2.1 ± 0.4 µM.
`O=C1NCC2CCCC1N2S(=O)(=O)c1ccc2[nH]c(=O)sc2c1` (centres unmarked) [Compound 4e, 6-(2-oxo-3,9-diazabicyclo[3.3.1]nonan-9-ylsulfonyl)benzo[d]thiazol-2(3H)-one] was tested, and the “FKBP52 ligand efficiency (LE)” value [1] was 0.26, the Ki [1] was 46.4 ± 3.8 µM and the “FKBP51 ligand efficiency (LE)” value [2] was 0.27. The Ki [2] was 27 ± 1.7 µM, the “FKBP12 ligand efficiency (LE)” value [3] was 0.42 and the Ki [3] was 0.1 ± 0.0005 µM.
`COc1ccc(CCN2CCC3CCCC(C2=O)N3C(=O)C(=O)c2cc(OC)c(OC)c(OC)c2)cc1OC` (centres unmarked) [Compound 5h, 1-(3-(3,4-dimethoxyphenethyl)-2-oxo-3,10-diazabicyclo[4.3.1]-decan-10-yl)-2-(3,4,5-trimethoxyphenyl)ethane-1,2-dione, reference compound] was tested, and the Ki [1] was > 100 µM, the Ki [2] was > 100 µM and the “FKBP12 ligand efficiency (LE)” value [3] was 0.21. The Ki [3] was 1.5 ± 0.04 µM.
For `COc1ccc(OCCOC(=O)C2CCCCN2S(=O)(=O)c2ccc3ncsc3c2)cc1OC` (centres unmarked) [Compound 3c, 2-(3,4-dimethoxyphenoxyl)ethyl 1-(benzo[d]thiazol-6-ylsulfonyl)-piperidine-2-carboxylate, reference compound], the Ki [1] was > 100 µM, the “FKBP12 ligand efficiency (LE)” value [3] was 0.28 and the Ki [3] was 0.1 ± 3e-05 µM.
In the case of `COc1ccc(OCCN2CC3CCCC(C2=O)N3S(=O)(=O)c2cc(Cl)cc(Cl)c2)cc1OC` (centres unmarked) [Compound 4b, 9-(3,5-dichlorophenylsulfonyl)-3-(2-(3,4-dimethoxyphenoxyl)ethyl)-3,9-diazabicyclo[3.3.1]nonan-2-one], the “FKBP52 ligand efficiency (LE)” value [1] is reported as 0.20, the Ki [1] is reported as 12.2 ± 3.7 µM and the “FKBP51 ligand efficiency (LE)” value [2] is reported as 0.21. For the same molecule, the Ki [2] was 8.8 ± 1.1 µM, the “FKBP12 ligand efficiency (LE)” value [3] was 0.28 and the Ki [3] was 0.14 ± 0.01 µM.
`CCC(C)(C)C(=O)C(=O)N1C2CCCC1C(=O)N(CCOc1ccc(OC)c(OC)c1)CC2` (centres unmarked) [Compound 5f, 1-(3-(2-(3,4-dimethoxyphenoxyl)ethyl)-2-oxo-3,10-diazabicyclo-[4.3.1]decan-10-yl)-3,3-dimethylpentane-1,2-dione, reference compound] was tested, and the Ki [1] was > 100 µM, the Ki [2] was > 100 µM and the “FKBP12 ligand efficiency (LE)” value [3] was 0.24. For the same molecule, the Ki [3] was 1.5 ± 0.1 µM.
With `O=C1NCCC2CCCC1N2S(=O)(=O)c1ccc2[nH]c(=O)sc2c1` (centres unmarked) [Compound 5e, 6-(2-oxo-3,10-diazabicyclo[4.3.1]decan-10-ylsulfonyl)benzo[d]thiazol-2(3H)-one] the “FKBP52 ligand efficiency (LE)” value [1] was 0.27, the Ki [1] was 22.6 ± 1 µM and the “FKBP51 ligand efficiency (LE)” value [2] was 0.29. For the same molecule, the Ki [2] was 9.8 ± 0.5 µM, the “FKBP12 ligand efficiency (LE)” value [3] was 0.41 and the Ki [3] was 0.06 ± 0.002 µM.
With `COc1ccc(OCCN2CC3CCCC(C2=O)N3C(=O)C(=O)c2cc(OC)c(OC)c(OC)c2)cc1OC` (centres unmarked) [Compound 4a, 1-(3-(2-(3,4-dimethoxyphenoxyl)ethyl)-2-oxo-3,9-diazabicyclo[3.3.1]nonan-9-yl)-2-(3,4,5-trimethoxyphenyl)ethane-1,2-dione, reference compound] the “FKBP52 ligand efficiency (LE)” value [1] was 0.15, the Ki [1] was 79.4 ± 20 µM and the “FKBP51 ligand efficiency (LE)” value [2] was 0.15. For the same molecule, the Ki [2] was 51.1 ± 7.6 µM, the “FKBP12 ligand efficiency (LE)” value [3] was 0.24 and the Ki [3] was 0.2 ± 0.01 µM.
In the case of `COc1ccc(OCCN2CC3CCCC(C2=O)N3S(=O)(=O)c2ccc3[nH]c(=O)sc3c2)cc1OC` (centres unmarked) [Compound 4d, 6-(3-(2-(3,4-dimethoxyphenoxyl)ethyl)-2-oxo-3,9-diazabicyclo[3.3.1]nonan-9-ylsulfonyl)benzo[d]thiazol-2(3H)-one], the “FKBP51 ligand efficiency (LE)” value [2] is reported as 0.19, the Ki [2] is reported as 13.9 ± 0.9 µM and the “FKBP12 ligand efficiency (LE)” value [3] is reported as 0.28. It also gave a Ki [3] of 0.07 ± 0.0004 µM.
In the case of `COc1ccc(OCCOC(=O)C2CCCCN2C(=O)C(=O)c2cc(OC)c(OC)c(OC)c2)cc1OC` (centres unmarked) [Compound 3a, 2-(3,4-dimethoxyphenoxyl)ethyl 1-(2-oxo-2-(3,4,5-trimethoxy-phenyl)acetyl)piperidine-2-carboxylate, reference compound], the Ki [1] is reported as > 100 µM, the “FKBP12 ligand efficiency (LE)” value [3] is reported as 0.22 and the Ki [3] is reported as 0.3 ± 0.03 µM.
In the case of `COc1ccc(OCCOC(=O)C2CCCCN2S(=O)(=O)c2cc(Cl)cc(Cl)c2)cc1OC` (centres unmarked) [Compound 3b, 2-(3,4-dimethoxyphenoxyl)ethyl 1-(3,5-dichlorophenyisulfonyl)-piperidine-2-carboxylate, reference compound], the Ki [1] is reported as > 100 µM, the “FKBP12 ligand efficiency (LE)” value [3] is reported as 0.27 and the Ki [3] is reported as 0.4 ± 0.006 µM.
In the case of `COc1ccc(OCCN2CCC3CCCC(C2=O)N3S(=O)(=O)c2cc(Cl)c(O)c(Cl)c2)cc1OC` (centres unmarked) [Compound 5i, 10-(3,5-dichloro-4-hydroxyphenylsulfonyl)-3-(2-(3,4-dimethoxyphenoxyl)ethyl)-3,10-diazabicyclo[4.3.1]decan-2-one], the “FKBP52 ligand efficiency (LE)” value [1] is reported as 0.21, the Ki [1] is reported as 3.5 ± 0.4 µM and the “FKBP51 ligand efficiency (LE)” value [2] is reported as 0.23. For the same molecule, the Ki [2] was 1 ± 0.1 µM, the “FKBP12 ligand efficiency (LE)” value [3] was 0.24 and the Ki [3] was 0.4 ± 0.04 µM.
For `COc1ccc(OCCN2CC3CCCC(C2=O)N3S(=O)(=O)c2ccc3ncsc3c2)cc1OC` (centres unmarked) [Compound 4c, 9-(benzo[d]thiazol-6-ylsulfonyl)-3-(2-(3,4-dimethoxyphenoxyl)ethyl)-3,9-diazabicyclo[3.3.1]nonan-2-one], the “FKBP51 ligand efficiency (LE)” value [2] was 0.17, the Ki [2] was 64.8 ± 12.3 µM and the “FKBP12 ligand efficiency (LE)” value [3] was 0.24. For the same molecule, the Ki [3] was 0.9 ± 2 µM.
`COc1ccc(OCCN2CCC3CCCC(C2=O)N3S(=O)(=O)c2ccc3[nH]c(=O)sc3c2)cc1OC` (centres unmarked) [Compound 5d, 6-(3-(2-(3,4-dimethoxyphenoxy)ethyl)-2-oxo-3,10-diazabicyclo[4.3.1]decan-10-ylsulfonyl)benzo[d]thiazol-2(3H)-one] was tested, and the “FKBP52 ligand efficiency (LE)” value [1] was 0.22, the Ki [1] was 1.2 ± 0.2 µM and the “FKBP51 ligand efficiency (LE)” value [2] was 0.24. The Ki [2] was 0.3 ± 0.02 µM, the “FKBP12 ligand efficiency (LE)” value [3] was 0.34 and the Ki [3] was 0.001 ± 0.0003 µM.
For `CCOC(=O)C1CCCCN1S(=O)(=O)c1ccc2[nH]c(=O)sc2c1` (centres unmarked) [Compound 3d, ethyl 1-(2-oxo-2,3-dihydrobenzo[d]thiazol-6-ylsulfonyl)piperidine-2-carboxylate, reference compound], the Ki [1] was > 100 µM, the “FKBP12 ligand efficiency (LE)” value [3] was 0.38 and the Ki [3] was 0.2 ± 0.004 µM.
`C=CC[C@@H]1/C=C(\C)C[C@H](C)C[C@H](OC)[C@H]2O[C@@](O)(C(=O)C(=O)N3CCCC[C@H]3C(=O)O[C@H](/C(C)=C/[C@@H]3CC[C@@H](O)[C@H](OC)C3)[C@H](C)[C@@H](O)CC1=O)[C@H](C)C[C@@H]2OC` [FK 506, FK506, reference compound] gave a Ki [2] of 0.028 ± 0.005 µM.
For `CCN1CC2CCCC(C1=O)N2C(=O)C(=O)c1cc(OC)c(OC)c(OC)c1` (centres unmarked) [Compound 4g, 1-(3-ethyl-2-oxo-3,9-diazabicyclo[3.3.1]nonan-9-yl)-2-(3,4,5-trimethoxyphenyl)ethane-1,2-dione, reference compound], the Ki [1] was > 100 µM, the “FKBP12 ligand efficiency (LE)” value [3] was 0.26 and the Ki [3] was 6.3 ± 0.02 µM.
For `COc1ccc(OCCN2CCC3CCCC(C2=O)N3S(=O)(=O)c2cc(Cl)cc(Cl)c2)cc1OC` (centres unmarked) [Compound 5b, 10-(3,5-dichlorophenylsulfonyl)-3-(2-(3,4-dimethoxyphenoxy)ethyl)-3,10-diazabicyclo[4.3.1]decan-2-one], the “FKBP52 ligand efficiency (LE)” value [1] was 0.23, the Ki [1] was 1.6 ± 0.3 µM and the “FKBP51 ligand efficiency (LE)” value [2] was 0.23. The Ki [2] was 1.2 ± 0.2 µM, the “FKBP12 ligand efficiency (LE)” value [3] was 0.32 and the Ki [3] was 0.01 ± 0.002 µM.
